Assay results reported in the NIST ThermoML archive (doi:10.1021/acs.jced.5b00198).
Several values for one entry are separate records, joined by “and”; a condition that tells them apart may be missing. Equal entries are not always repeated.

Experiment: mn = molality of the nth substance listed, in mol/kg
Settings: 101 kPa, Liquid; for viscosity: Capillary tube (Ostwald / Ubbelohde) method; for speed of sound: Frequency=3 MHz, Sing-around technique in a fixed-path interferometer; for mass density: Vibrating tube method

CCCC[N+](CCCC)(CCCC)CCCC.[I-] [tetrabutylammonium iodide] + O
Settings	mass density, m1 = 0.01 [kg/m3]	mass density, m1 = 0.03 [kg/m3]	speed of sound, m1 = 0.01 [m/s]	speed of sound, m1 = 0.03 [m/s]	viscosity, m1 = 0.01	viscosity, m1 = 0.03
288.15 K	1001.07	1002.22	1468.9	1473.6	1.173 mPa·s and 1.171 mPa·s	1.197 mPa·s and 1.201 mPa·s and 1.205 mPa·s
293.15 K	1000.16	1001.29	1484.9	1489.1	1.006 mPa·s and 1.007 mPa·s	1.033 mPa·s and 1.025 mPa·s and 1.036 mPa·s
298.15 K	998.972	1000.09	1498.9	1502.8	0.861 mPa·s and 0.862 mPa·s	0.883 mPa·s and 0.882 mPa·s and 0.884 mPa·s
303.15 K	997.53	998.614	1511.1	1514.5	0.818 mPa·s and 0.817 mPa·s	0.83 mPa·s and 0.828 mPa·s and 0.831 mPa·s
308.15 K	995.952	997.021	1521.2	1524.4	0.731 mPa·s and 0.732 mPa·s	0.739 mPa·s and 0.744 mPa·s
